Read-outs that look alike come from different tables or passages of the source.
Key:
[1] = target: BM-3(A328V), P450BM-3(A328V) (Priestia megaterium, UniProt P14779, A329V); test: Steady-state turnover, products quantified by GC-MS, A328V holoenzyme; format: biochemical, Bacillus megaterium; conditions: 50 nM enzyme, 250 μM substrate; for BM-3(A328V) turnover rate: 50 mM KPi pH 7.4, 25°C, GC-MS
[2] = target: BM-3(wt), wild-type P450BM-3 (Priestia megaterium, UniProt P14779); test: Steady-state turnover, products quantified by GC-MS, wild-type holoenzyme; format: biochemical, Bacillus megaterium; conditions: 50 nM enzyme, 250 μM substrate, 50 mM KPi pH 7.4, 25°C
[3] = target: BMP(A328V), heme domain of P450BM-3 A328V mutant (Priestia megaterium, UniProt P14779, A329V); test: Substrate dissociation constants by UV-vis spectral titration, A328V heme domain; format: binding, Bacillus megaterium; conditions: for Fold Enhancement of substrate affinity, A328V versus wild type: ratio of BMP(wt) KD to BMP(A328V) KD
BM-3(A328V) = conditions: 2% (v/v) DMSO, 200 μM substrate, 500 nM enzyme; cited from earlier work
BM-3(wt) = conditions: 2% (v/v) DMSO, 200 μM substrate, 500 nM enzyme; cited from earlier work
P450BM-3 wild-type = P450BM-3 wild-type (Priestia megaterium, UniProt P14779); test: Regiospecificity of hydroxylation, product distribution by GC/MS, wild type; format: biochemical, Bacillus megaterium; conditions: wild-type enzyme, 500 μM substrate, 50 nM enzyme, 250 μM NADPH, run to completion
[4] = target: BMP(wt), heme domain of P450BM-3 (Priestia megaterium, UniProt P14779); format: binding, Bacillus megaterium
P450BM-3(A328V) = P450BM-3(A328V) (Priestia megaterium, UniProt P14779, A329V); test: Regiospecificity of hydroxylation, product distribution by GC/MS, A328V; format: biochemical, Bacillus megaterium; conditions: A328V mutant, 500 μM substrate, 50 nM enzyme, 250 μM NADPH, run to completion
[5] = read-out: BMP(A328V) Dissociation Constant, 50 mM KPi pH 7.4, room temperature, 1 μM P450, UV-vis titration

Chain of BM-3(wt), wild-type P450BM-3 (P14779 whole entry, the tested form may be a part): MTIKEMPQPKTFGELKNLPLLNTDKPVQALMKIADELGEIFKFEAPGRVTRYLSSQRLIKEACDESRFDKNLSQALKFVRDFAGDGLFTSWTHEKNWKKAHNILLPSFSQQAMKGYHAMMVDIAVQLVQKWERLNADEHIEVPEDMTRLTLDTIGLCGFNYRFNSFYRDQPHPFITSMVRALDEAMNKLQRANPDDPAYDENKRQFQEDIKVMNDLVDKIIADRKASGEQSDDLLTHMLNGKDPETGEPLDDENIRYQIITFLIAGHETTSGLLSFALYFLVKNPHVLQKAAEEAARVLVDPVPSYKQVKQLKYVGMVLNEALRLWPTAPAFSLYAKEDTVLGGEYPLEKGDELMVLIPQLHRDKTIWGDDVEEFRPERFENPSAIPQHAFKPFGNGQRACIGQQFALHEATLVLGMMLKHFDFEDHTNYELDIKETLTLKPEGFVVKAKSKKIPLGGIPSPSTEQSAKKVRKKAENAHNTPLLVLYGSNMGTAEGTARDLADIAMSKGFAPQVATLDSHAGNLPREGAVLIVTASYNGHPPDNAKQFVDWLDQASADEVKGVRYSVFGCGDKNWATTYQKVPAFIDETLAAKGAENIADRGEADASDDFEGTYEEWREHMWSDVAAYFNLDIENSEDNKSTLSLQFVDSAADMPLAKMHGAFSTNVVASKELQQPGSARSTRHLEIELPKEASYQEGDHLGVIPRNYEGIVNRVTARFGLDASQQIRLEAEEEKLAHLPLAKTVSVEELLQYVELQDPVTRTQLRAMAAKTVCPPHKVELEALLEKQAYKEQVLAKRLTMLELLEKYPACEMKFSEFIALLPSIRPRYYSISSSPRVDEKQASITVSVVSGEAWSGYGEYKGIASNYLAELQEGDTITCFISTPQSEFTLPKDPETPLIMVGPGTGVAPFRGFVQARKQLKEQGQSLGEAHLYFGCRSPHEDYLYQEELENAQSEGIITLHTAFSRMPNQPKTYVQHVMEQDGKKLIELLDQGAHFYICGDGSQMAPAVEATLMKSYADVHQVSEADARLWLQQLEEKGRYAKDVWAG
Chain of BMP(A328V), heme domain of P450BM-3 A328V mutant (P14779 2-472 A329V): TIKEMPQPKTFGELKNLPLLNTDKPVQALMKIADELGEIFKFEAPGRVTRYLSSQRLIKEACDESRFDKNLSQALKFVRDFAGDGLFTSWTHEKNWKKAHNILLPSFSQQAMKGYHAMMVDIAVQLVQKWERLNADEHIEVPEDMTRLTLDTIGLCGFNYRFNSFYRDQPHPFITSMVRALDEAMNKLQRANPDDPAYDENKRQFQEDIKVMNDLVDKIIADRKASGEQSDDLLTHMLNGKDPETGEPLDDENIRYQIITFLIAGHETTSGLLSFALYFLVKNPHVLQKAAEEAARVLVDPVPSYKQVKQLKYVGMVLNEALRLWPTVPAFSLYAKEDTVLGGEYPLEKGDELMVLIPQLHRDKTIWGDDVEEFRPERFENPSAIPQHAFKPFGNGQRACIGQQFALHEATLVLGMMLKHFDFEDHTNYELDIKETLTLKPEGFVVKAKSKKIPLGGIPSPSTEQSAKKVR
Chain of BM-3(A328V), P450BM-3(A328V) (P14779 whole entry A329V): as the sequence (P14779 whole entry, the tested form may be a part) above, with A329V counted along it
Chain of P450BM-3 wild-type (P14779 whole entry, the tested form may be a part): as the sequence (P14779 whole entry, the tested form may be a part) above
Chain of P450BM-3(A328V) (P14779 whole entry A329V): as the sequence (P14779 whole entry, the tested form may be a part) above, with A329V counted along it
Chain of BMP(wt), heme domain of P450BM-3 (P14779 2-472): as the sequence (P14779 2-472 A329V) above, with V328A counted along it

## CCCCCCCCCCCCCCCC(=O)NCC(=O)O [PalmGly, N-palmitoylglycine]
[1]
  Fold Enhancement of turnover (rate A328V divided by rate wild type): 2.9
  BM-3(A328V) turnover rate: 5500 ± 600 μmol/min/μmol
[2]
  BM-3(wt) turnover rate: 1875 ± 30 μmol/min/μmol
[3]
  Fold Enhancement of substrate affinity, A328V versus wild type: 7.1
[3]; [5]
  Kd: 45 ± 14 nM

## CCCCCCCCCCCCCCCC(=O)N[C@@H](CCC(=O)O)C(=O)O [PalmGlu, N-palmitoyl-L-glutamate]
[1]
  Fold Enhancement of turnover (rate A328V divided by rate wild type): 8.2
  BM-3(A328V) turnover rate: 3960 ± 280 μmol/min/μmol
[2]
  BM-3(wt) turnover rate: 485 ± 15 μmol/min/μmol
[3]
  Fold Enhancement of substrate affinity, A328V versus wild type: 9.0
[3]; [5]
  Kd: 410 ± 60 nM

## CCCCCCCCCCCCCCCC(=O)N[C@@H](CCSC)C(=O)O [PalmMet, N-palmitoyl-L-methionine]
[1]
  Fold Enhancement of turnover (rate A328V divided by rate wild type): 2.6
  BM-3(A328V) turnover rate: 4400 ± 145 μmol/min/μmol
[2]
  BM-3(wt) turnover rate: 1690 ± 75 μmol/min/μmol
[3]; [5]
  Kd: < 30 nM

## CCCCCCCCCCCCCCCC(=O)N[C@@H](CCC(N)=O)C(=O)O [PalmGln, N-palmitoyl-L-glutamine]
[1]
  Fold Enhancement of turnover (rate A328V divided by rate wild type): 7.4
  BM-3(A328V) turnover rate: 4500 ± 500 μmol/min/μmol
[2]
  BM-3(wt) turnover rate: 610 ± 25 μmol/min/μmol
[3]
  Fold Enhancement of substrate affinity, A328V versus wild type: 2.7
[3]; [5]
  Kd: 74 ± 5 nM

## CC(=O)CC/C=C(/C)CCC=C(C)C [Nerylacetone]
BM-3(A328V)
  BM-3(A328V) turnover rate: 338 ± 10 μmol/min/μmol
BM-3(wt)
  BM-3(wt) turnover rate: 155 ± 7 μmol/min/μmol

## CCCCCCCCCCCCCCCC(=O)O [Palmitate, palmitic acid]
[1]
  Fold Enhancement of turnover (rate A328V divided by rate wild type): 2.3
  BM-3(A328V) turnover rate: 3355 ± 95 μmol/min/μmol
[2]
  BM-3(wt) turnover rate: 1480 ± 35 μmol/min/μmol
P450BM-3 wild-type
  ω-2 hydroxy product, percent of total oxidation products: 46%
[4]
  Kd: 1300 ± 170 nM
P450BM-3(A328V)
  ω-1 hydroxy product, percent of total oxidation products: 72%
[3]
  Kd: 160 ± 20 nM
  Fold Enhancement of substrate affinity, A328V versus wild type: 8.1

## CCCCCCCCCCCCCCCC(=O)N[C@@H](CC(C)C)C(=O)O [PalmLeu]
[1]
  Fold Enhancement of turnover (rate A328V divided by rate wild type): 3.4
  BM-3(A328V) turnover rate: 3900 ± 320 μmol/min/μmol
[2]
  BM-3(wt) turnover rate: 1155 ± 20 μmol/min/μmol
[3]; [5]
  Kd: < 30 nM

From article PMC3235725 (Biochemistry, 2011)
